Reference: US9833497B2, “Human originated EGF domain proteins and use of the same” (CHENGDU SOURCEBIO LIMITED-LIABILITY COMPANY, priority 2013, dated 2017)

How the values were obtained:
Type in all cases: cell-based
[1] = tested on: E. coli DH5α; assay: Antibacterial activity: MIC and growth curve against E. coli DH5α in 96-well plate; details: minimal inhibitory concentration against E. coli DH5α; 96-well plate, 5×10^5 CFU/mL, 37° C., judged after 8 h
How it was run: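 MIC taken as lowest protein level with no bacterial growth, tracked by A600 every 30 min during 37 °C, 175 rpm culture. Two-fold protein series 50-12.5 μg/mL final, triplicate wells, against 5×10^5 CFU/mL of LB-washed mid-log cells.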

[2] = tested on: Serratia marcescens; assay: MIC against Gram-negative bacteria: Serratia marcescens; details: Serratia marcescens; 96-well plate, 5×10^5 CFU/mL, 37° C., 10 h
How it was run: (§1)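 The recombinant human-originated EGF domain proteins were serially diluted two-fold against bacteria at 5×10^5 CFU/mL in LB medium. After shaken incubation at 37° C, the lowest concentration with no bacterial growth was recorded as the MIC.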

[3] = tested on: Enterobacter cloacae; assay: MIC against Gram-negative bacteria: Enterobacter cloacae; details: Enterobacter cloacae; 96-well plate, 5×10^5 CFU/mL, 37° C., 10 h
How it was run: as §1

[4] = tested on: Moraxella catarrhalis; assay: MIC against Gram-negative bacteria: Moraxella catarrhalis; details: Moraxella catarrhalis; 96-well plate, 5×10^5 CFU/mL, 37° C., 10 h
How it was run: as §1

[5] = tested on: Pseudomonas aeruginosa; assay: MIC against Gram-negative bacteria: Pseudomonas aeruginosa; details: Pseudomonas aeruginosa; 96-well plate, 5×10^5 CFU/mL, 37° C., 10 h
How it was run: as §1

[6] = tested on: Klebsiella pneumonia; assay: MIC against Gram-negative bacteria: Klebsiella pneumonia; details: Klebsiella pneumonia; 96-well plate, 5×10^5 CFU/mL, 37° C., 10 h
How it was run: as §1

[7] = tested on: Aeromonas hydrophila; assay: MIC against Gram-negative bacteria: Aeromonas hydrophila; details: Aeromonas hydrophila; 96-well plate, 5×10^5 CFU/mL, 37° C., 10 h
How it was run: as §1

[8] = tested on: Citrobacter diversus; assay: MIC against Gram-negative bacteria: Citrobacter diversus; details: Citrobacter diversus; 96-well plate, 5×10^5 CFU/mL, 37° C., 10 h
How it was run: as §1

[9] = tested on: Proteus vulgaris; assay: MIC against Gram-negative bacteria: Proteus vulgaris; details: Proteus vulgaris; 96-well plate, 5×10^5 CFU/mL, 37° C., 10 h
How it was run: as §1

[10] = tested on: E. coli BL21; assay: MIC against Gram-negative bacteria: E. coli BL21; details: E. coli BL21; 96-well plate, 5×10^5 CFU/mL, 37° C., 10 h
How it was run: as §1

[11] = tested on: Proteus mirabilis; assay: MIC against Gram-negative bacteria: Proteus mirabilis; details: Proteus mirabilis; 96-well plate, 5×10^5 CFU/mL, 37° C., 10 h
How it was run: as §1

PRT1253 (WPRQCPCLVDGARYWPGQRIKADCQLCICQDGRPRRCR; listed as Homo sapiens)
12.5 µg/mL: MIC against E. cloacae [3] | MIC against M. catarrhalis [4] | MIC against E. coli BL21 [10]
25 µg/mL: MIC against S. marcescens [2] | MIC against K. pneumonia [6] | MIC against C. diversus [8] | MIC against P. mirabilis [11]
50 µg/mL: MIC [1] | MIC against P. aeruginosa [5] | MIC against A. hydrophila [7] | MIC against P. vulgaris [9]

PRT1254 (DVDECSEGTDDCHIDAICQNTPKSYKCLCKPGYKGEGKQCE; listed as Homo sapiens)
25 µg/mL: MIC against K. pneumonia [6] | MIC against P. vulgaris [9] | MIC against E. coli BL21 [10]
12.5 µg/mL: MIC [1] | MIC against E. cloacae [3] | MIC against C. diversus [8] | MIC against P. mirabilis [11]
50 µg/mL: MIC against S. marcescens [2] | MIC against M. catarrhalis [4] | MIC against P. aeruginosa [5] | MIC against A. hydrophila [7]

PRT1256 (DVDECQDNNGGCQQICVNAMGSYECQCHSGFFLSDNQ; listed as Homo sapiens)
25 µg/mL: MIC [1] | MIC against S. marcescens [2] | MIC against E. cloacae [3] | MIC against P. aeruginosa [5]
50 µg/mL: MIC against M. catarrhalis [4] | MIC against A. hydrophila [7] | MIC against P. vulgaris [9]
12.5 µg/mL: MIC against K. pneumonia [6] | MIC against C. diversus [8] | MIC against E. coli BL21 [10] | MIC against P. mirabilis [11]

PRT1257 (CMNKDHGCAHICRETPKGGVACDCRPGFDLAQNQKDC; listed as Homo sapiens)
25 µg/mL: MIC against E. cloacae [3] | MIC against P. aeruginosa [5] | MIC against A. hydrophila [7]
12.5 µg/mL: MIC [1] | MIC against M. catarrhalis [4] | MIC against K. pneumonia [6] | MIC against P. vulgaris [9]
50 µg/mL: MIC against S. marcescens [2] | MIC against C. diversus [8] | MIC against E. coli BL21 [10] | MIC against P. mirabilis [11]

PRT1258 (GRTCIETCAVNNGGCDRTCKDTATGVRCSCPVGFTLQPD; listed as Homo sapiens)
25 µg/mL: MIC against K. pneumonia [6] | MIC against A. hydrophila [7] | MIC against P. vulgaris [9] | MIC against E. coli BL21 [10]
50 µg/mL: MIC against P. aeruginosa [5] | MIC against C. diversus [8] | MIC against P. mirabilis [11]
12.5 µg/mL: MIC [1] | MIC against S. marcescens [2] | MIC against E. cloacae [3] | MIC against M. catarrhalis [4]

PRT1259 (CAVNNGGCDRTCKDTATGVRCSCPVGFTLQPDGKTC; listed as Homo sapiens)
25 µg/mL: MIC [1] | MIC against E. cloacae [3] | MIC against P. aeruginosa [5]
12.5 µg/mL: MIC against S. marcescens [2] | MIC against K. pneumonia [6] | MIC against C. diversus [8] | MIC against P. mirabilis [11]
50 µg/mL: MIC against M. catarrhalis [4] | MIC against A. hydrophila [7] | MIC against P. vulgaris [9] | MIC against E. coli BL21 [10]

PRT1260 (DINECLVNNGGCDHFCRNTVGSFECGCRKGYKLLTDERTCQ; listed as Homo sapiens)
12.5 µg/mL: MIC against K. pneumonia [6] | MIC against C. diversus [8] | MIC against P. mirabilis [11]
25 µg/mL: MIC [1] | MIC against S. marcescens [2] | MIC against E. cloacae [3] | MIC against P. aeruginosa [5]
50 µg/mL: MIC against M. catarrhalis [4] | MIC against A. hydrophila [7] | MIC against P. vulgaris [9] | MIC against E. coli BL21 [10]

PRT1262 (DVDECSMSNGSCDQGCVNTKGSYECVCPPGRRLHWNGKDCV; listed as Homo sapiens)
50 µg/mL: MIC against M. catarrhalis [4] | MIC against A. hydrophila [7] | MIC against P. vulgaris [9]
12.5 µg/mL: MIC [1] | MIC against E. cloacae [3] | MIC against P. aeruginosa [5] | MIC against C. diversus [8] | MIC against P. mirabilis [11]
25 µg/mL: MIC against S. marcescens [2] | MIC against K. pneumonia [6] | MIC against E. coli BL21 [10]

PRT1263 (DVDECAQGLDDCHADALCQNTPTSYKCSCKPGYQGEGRQCE; listed as Homo sapiens)
25 µg/mL: MIC against K. pneumonia [6]
12.5 µg/mL: MIC against M. catarrhalis [4] | MIC against P. aeruginosa [5] | MIC against A. hydrophila [7] | MIC against P. vulgaris [9]
50 µg/mL: MIC against S. marcescens [2] | MIC against E. cloacae [3] | MIC against C. diversus [8] | MIC against E. coli BL21 [10] | MIC against P. mirabilis [11]
100 µg/mL: MIC [1]

PRT1264 (DIDECGNELNGGCVHDCLNIPGNYRCTCFDGFMLAHDGHNCL; listed as Homo sapiens)
50 µg/mL: MIC against M. catarrhalis [4] | MIC against P. vulgaris [9] | MIC against E. coli BL21 [10]
25 µg/mL: MIC against K. pneumonia [6] | MIC against A. hydrophila [7]
12.5 µg/mL: MIC [1] | MIC against S. marcescens [2] | MIC against E. cloacae [3] | MIC against P. aeruginosa [5] | MIC against C. diversus [8] | MIC against P. mirabilis [11]

PRT1265 (DVDECLENNGGCQHTCVNVMGSYECCCKEGFFLSDNQHTCI; listed as Homo sapiens)
50 µg/mL: MIC against A. hydrophila [7] | MIC against P. vulgaris [9] | MIC against E. coli BL21 [10]
12.5 µg/mL: MIC against S. marcescens [2] | MIC against M. catarrhalis [4] | MIC against K. pneumonia [6] | MIC against P. mirabilis [11]
25 µg/mL: MIC [1] | MIC against E. cloacae [3] | MIC against P. aeruginosa [5] | MIC against C. diversus [8]

PRT1266 (CMNKDHGCSHICKEAPRGSVACECRPGFELAKNQRDC; listed as Homo sapiens)
50 µg/mL: MIC [1] | MIC against S. marcescens [2] | MIC against K. pneumonia [6] | MIC against P. mirabilis [11]
12.5 µg/mL: MIC against C. diversus [8] | MIC against P. vulgaris [9] | MIC against E. coli BL21 [10]
25 µg/mL: MIC against E. cloacae [3] | MIC against M. catarrhalis [4] | MIC against P. aeruginosa [5] | MIC against A. hydrophila [7]

PRT1267 (CNHGNGGCQHSCDDTADGPECSCHPQYKMHTDGRSC; listed as Homo sapiens)
25 µg/mL: MIC against M. catarrhalis [4] | MIC against K. pneumonia [6] | MIC against P. vulgaris [9] | MIC against E. coli BL21 [10]
12.5 µg/mL: MIC [1] | MIC against S. marcescens [2] | MIC against E. cloacae [3] | MIC against C. diversus [8]
50 µg/mL: MIC against P. aeruginosa [5] | MIC against A. hydrophila [7] | MIC against P. mirabilis [11]
